Article PMC12087874, “Biaryl Phosphates and Phosphonates as Selective Inhibitors of the Transcription Factor STAT4” (Angewandte Chemie (International Ed. in English), 2025)
Substitutions are numbered along the chain they refer to. “Also recorded” adds a separate entry of the source.

Experiments:
STAT4 Arg598Ala = biological target: T1, STAT4 Arg598Ala (Homo sapiens, UniProt Q14765, R598A); assay: Isothermal titration calorimetry (ITC), STAT4 Arg598Ala; assay type: binding; settings: n = 4
T1 construct: 6xHis; made in house
T1 sequence (Q14765 1-748 R598A): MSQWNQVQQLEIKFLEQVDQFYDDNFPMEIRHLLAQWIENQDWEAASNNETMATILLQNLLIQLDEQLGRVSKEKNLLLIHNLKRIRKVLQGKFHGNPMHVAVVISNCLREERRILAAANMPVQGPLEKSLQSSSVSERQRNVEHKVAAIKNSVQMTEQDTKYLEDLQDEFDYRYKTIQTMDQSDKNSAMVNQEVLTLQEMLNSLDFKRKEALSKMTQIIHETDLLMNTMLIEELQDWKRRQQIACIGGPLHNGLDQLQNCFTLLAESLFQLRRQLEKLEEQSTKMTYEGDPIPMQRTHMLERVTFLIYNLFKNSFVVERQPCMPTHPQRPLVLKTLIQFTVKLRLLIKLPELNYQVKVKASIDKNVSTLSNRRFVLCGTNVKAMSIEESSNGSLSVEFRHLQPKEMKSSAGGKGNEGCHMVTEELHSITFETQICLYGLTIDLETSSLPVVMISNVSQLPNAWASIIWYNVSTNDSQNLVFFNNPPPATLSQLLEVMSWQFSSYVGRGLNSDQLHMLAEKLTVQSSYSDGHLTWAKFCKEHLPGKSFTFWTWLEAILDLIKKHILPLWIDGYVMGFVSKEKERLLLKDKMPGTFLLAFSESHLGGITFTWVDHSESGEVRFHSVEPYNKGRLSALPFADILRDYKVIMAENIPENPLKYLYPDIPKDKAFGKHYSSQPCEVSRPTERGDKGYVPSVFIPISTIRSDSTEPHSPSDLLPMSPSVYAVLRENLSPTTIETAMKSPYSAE

STAT3 = STAT3 (Homo sapiens, UniProt P40763); assay: CETSA of STAT3 in lysates from NK-92 cells; assay type: binding; parameters: endogenous in cells; host or cells: NK-92 (DSMZ) lysate
Chain of STAT3 (P40763 whole entry): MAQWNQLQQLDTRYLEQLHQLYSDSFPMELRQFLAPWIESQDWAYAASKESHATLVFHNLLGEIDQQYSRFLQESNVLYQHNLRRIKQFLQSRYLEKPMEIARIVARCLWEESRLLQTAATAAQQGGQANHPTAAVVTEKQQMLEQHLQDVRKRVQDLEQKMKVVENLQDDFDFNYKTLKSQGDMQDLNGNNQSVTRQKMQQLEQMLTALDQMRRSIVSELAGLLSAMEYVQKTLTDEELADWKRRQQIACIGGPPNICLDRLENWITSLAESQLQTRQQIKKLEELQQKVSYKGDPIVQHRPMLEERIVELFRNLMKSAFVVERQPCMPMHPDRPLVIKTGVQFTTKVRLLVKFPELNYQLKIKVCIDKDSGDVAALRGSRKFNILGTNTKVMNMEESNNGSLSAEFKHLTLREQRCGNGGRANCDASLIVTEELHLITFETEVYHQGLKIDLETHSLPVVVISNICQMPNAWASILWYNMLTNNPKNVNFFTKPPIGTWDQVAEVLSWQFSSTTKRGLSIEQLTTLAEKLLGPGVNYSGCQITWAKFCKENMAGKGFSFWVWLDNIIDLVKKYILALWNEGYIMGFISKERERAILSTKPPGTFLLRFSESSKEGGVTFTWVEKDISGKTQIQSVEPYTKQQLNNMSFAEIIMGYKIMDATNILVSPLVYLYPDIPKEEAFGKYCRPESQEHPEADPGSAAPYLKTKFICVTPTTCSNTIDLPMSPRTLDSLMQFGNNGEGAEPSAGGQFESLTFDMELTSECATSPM
Description: NK-92 cells (DSMZ) were cultured in -MEM containing 12.5% fetal bovine serum (FBS), 12.5% horse serum, 2 mM L-glutamine, penicillin/streptomycin and 50 U/ml IL -2.
NK-92 cells were treated with test compound or DMSO in 1.5 ml medium in 12 -well plates (Corning) for 2 h (final DMSO concentration 0.2%), in the presence of 50 ng/ml IL -12 (PeproTech). […] Cells were harvested by washing twice with ice -cold TBS, followed by resuspension in TBS supplemented with protease/phosphatase inhibitors (100 ng/ml aprotinin, 1 mM Na3VO4, 10 mM NaF, 1 mM PMSF). […] Cells were lysed using three freeze -thaw cycles with liquid nitrogen and lysates cleared by centrif ugation.
NK-92 cell lysates were prepared for CETSA experiments by washing cultured cells once with TBS and resuspending in TBS supplemented with Halt Protease In hibitor Cocktail, EDTA-free (Fisher Scientific) at 3 x 10^6 cells per 100 µl. Cells were lysed using three freeze -thaw cycles with liquid nitrogen and lysates cleared by centrifugation.
CETSA experiments were performed essentially using the published protocol. […] Briefly, NK-92 cell lysates were incubated with test compound or DMSO for 15 min at room temperature (final DMSO concentration 2%). During this time, the treated lysate was divided into 10x 50 µl aliquots in 0.2 ml reaction tubes. Samples were then heated to the designated temperatures in a Veriti Pro Thermocycler (Thermo Fishe r Scientific) for 3 min, followed by 3 min incubation at room temperature, and then placed on ice. […] The soluble fractions were subsequently analyzed by Western blotting.
The components of cell lysates from treated cells, or heat-treated lysates from CETSA, were separated by SDS-PAGE (10%), transferred to nitrocellulose membrane (Bio-Rad) and detected using monoclonal rabbit primary antibodies (Cell Signaling), -rabbit-HRP secondary antibody (Dako) and Western Lightning Plus chemiluminescence reagent (Perkin Elmer).

STAT4 = biological target: T2, STAT4 (Homo sapiens, UniProt Q14765); assay: IL-12-induced STAT4 Tyr693 phosphorylation in NK-92 cells (Western blot); assay type: cell-based; parameters: utilizing cellular lysates from the STAT4‐expressing natural killer cell line NK‐92; endogenous in cells; host or cells: NK-92 (DSMZ); settings: treatment for 2 h (Figure S4)
T2 sequence (Q14765 1-748): T1 sequence (Q14765 1-748 R598A) with A598R
Description: NK-92 cells (DSMZ) were cultured in α-MEM containing 12.5% fetal bovine serum (FBS), 12.5% horse serum, 2 mM L-glutamine, penicillin/streptomycin and 50 U/ml IL -2. […]
The components of cell lysates from treated cells, or heat-treated lysates from CETSA, were separated by SDS-PAGE (10%), transferred to nitrocellulose membrane (Bio-Rad) and detected using monoclonal rabbit primary antibodies (Cell Signaling), α-rabbit-HRP secondary antibody (Dako) and Western Lightning Plus chemiluminescence reagent (Perkin Elmer).
Bands were visualized using an ImageQuant system (GE Healthcare) and quantitated using ImageJ software (NIH). […]
The sitting drop was composed of 0.1 µl protein solution and 0.1 µl reservoir solution. Plates were stored at 19°C in a protein […]
In the first set of experiments, w e tried to crystallize STAT4 as a SUMO -STAT4 fusion protein […]
was cleaved off as described above.
Screening for crystallization conditions for tag-free STAT4 was performed both in the absence or presence of 1 equivalent of 6m or 6h. Since the chosen protein concentration of 3.6 mg/ml appeared to be too low, screening was repeated with a higher concentration of 6.4 mg/ml STAT4 for all conditions (corresponding to 100 µM 6m). Both the SUMO-STAT4 and the tag-free STAT4 preferentially precipitated under conditions containing polyethylene glycol. In one set of experiments, we also screened for conditions in the presence of the high-affinity peptide GY(PO3H2)LPQNID adapted from the IL-12 receptor. However, none of the conditions resulted in the growth of STAT4 crystals (Table S4).

| ΔT agg of STAT3 (STAT3; CETSA, NK-92 cell lysates, versus DMSO control) | T agg of STAT3 (STAT3; CETSA, NK-92 cell lysates, DMSO control 51.0 ± 0.3 °C, n = 3) | stabilization of STAT3 against thermal degradation (STAT3; lysates from NK-92 cells, Ac-pYLPQTV-NH2 at 100 µM) | Structure (SMILES) | binding to STAT4 point mutant Arg598Ala (ITC) (STAT4 Arg598Ala) | inhibition of IL‐12‐induced STAT4 Tyr693 phosphorylation (STAT4) |
| --- | --- | --- | --- | --- | --- |
|  |  |  | O=P(O)(O)Oc1ccc(-c2ccc3ccccc3c2)cc1F [Compound 6m] | no heat release |  |
| −0.4 °C | 50.6 ± 0.2 °C | does not stabilize | Cc1cc(-c2ccc(C(F)(F)P(=O)(O)O)c(F)c2)cs1 [Compound 8k] |  | unable to inhibit; also recorded: does not inhibit |
